Test results taken from PubChem BioAssay AID2060497 (Molecular Pharmacology Branch, DTP, NCI, 2025).

System: 317291-083-R-J1-PDC complex spheroids, viability
Experiment: Anticancer human tumor 317291-083-R-J1-PDC patient-derived soft tissue sarcoma cell line growth inhibition [GQUAD]
Settings: for IC50: curve of first compound; for viability, T/C: stronger effect = lower value; active means viability on the fitted dose curve at most 10% of control; inactive means the rest
Method in brief: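 Multi-cell-type spheroids of tumor cells with HUVEC and mesenchymal stem cells, treated with drug combinations. Concentrations descend in half-log steps from near clinical Cmax, or from 10 microM where Cmax is unknown; viability read-out.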

[1] = second compound 0.0316 µM, first compound 0.0316 µM
[2] = second compound 0.0316 µM, first compound 0.1 µM
[3] = second compound 0.0316 µM, first compound 0.316 µM
[4] = second compound 0.0316 µM, first compound 1 µM
[5] = second compound 0.0316 µM, first compound 3.16 µM
[6] = second compound 0.0316 µM, first compound 10 µM
[7] = second compound 0.1 µM, first compound 0.0316 µM
[8] = second compound 0.1 µM, first compound 0.1 µM
[9] = second compound 0.1 µM, first compound 0.316 µM
[10] = second compound 0.1 µM, first compound 1 µM
[11] = second compound 0.1 µM, first compound 3.16 µM
[12] = second compound 0.1 µM, first compound 10 µM
[13] = second compound 0.316 µM, first compound 0.0316 µM
[14] = second compound 0.316 µM, first compound 0.1 µM
[15] = second compound 0.316 µM, first compound 0.316 µM
[16] = second compound 0.316 µM, first compound 1 µM
[17] = second compound 0.316 µM, first compound 3.16 µM
[18] = second compound 0.316 µM, first compound 10 µM
[19] = second compound 1 µM, first compound 0.0316 µM
[20] = second compound 1 µM, first compound 0.1 µM
[21] = second compound 1 µM, first compound 0.316 µM
[22] = second compound 1 µM, first compound 1 µM
[23] = second compound 1 µM, first compound 3.16 µM
[24] = second compound 1 µM, first compound 10 µM
[25] = second compound 3.16 µM, first compound 0.0316 µM
[26] = second compound 3.16 µM, first compound 0.1 µM
[27] = second compound 3.16 µM, first compound 0.316 µM
[28] = second compound 3.16 µM, first compound 1 µM
[29] = second compound 3.16 µM, first compound 3.16 µM
[30] = second compound 3.16 µM, first compound 10 µM
[31] = second compound 10 µM, first compound 0.0316 µM
[32] = second compound 10 µM, first compound 0.1 µM
[33] = second compound 10 µM, first compound 0.316 µM
[34] = second compound 10 µM, first compound 1 µM
[35] = second compound 10 µM, first compound 3.16 µM
[36] = second compound 10 µM, first compound 10 µM
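Further: spheroids exposed to compounds for one week before readout.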
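Wherever viability, T/C is given: percent viability relative to DMSO vehicle wells taken as 100%.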

Nc1ccn(C2OC(CO)C(O)C2(F)F)c(=O)n1 (stereo not given) + Cc1[nH]c2ccc(F)cc2c1-c1nc2c3cccnc3c3ncccc3c2[nH]1
< 0.0316 µM: IC50 (second compound 10 µM)
0.0428 µM: IC50 (second compound 0.1 µM)
active: viability, T/C [21] 10.5% | viability, T/C [22] 9.19% | viability, T/C [23] 9.71% | viability, T/C [24] 8.18%
0.0448 µM: IC50 (second compound 0.0316 µM)
0.0351 µM: IC50 (second compound 3.16 µM)
0.0371 µM: IC50 (second compound 1 µM)
0.0328 µM: IC50 (second compound 0.316 µM)
inactive: viability, T/C [1] 63% | viability, T/C [2] 20.3% | viability, T/C [3] 11.9% | viability, T/C [4] 11% | viability, T/C [5] 11.8% | viability, T/C [6] 8.15% | viability, T/C [7] 57.9% | viability, T/C [8] 27.4% | viability, T/C [9] 14.8% | viability, T/C [10] 12.3% | viability, T/C [11] 11% | viability, T/C [12] 9.19% | viability, T/C [13] 51.2% | viability, T/C [14] 16.1% | viability, T/C [15] 13.1% | viability, T/C [16] 16.2% | viability, T/C [17] 10.3% | viability, T/C [18] 8.34% | viability, T/C [19] 55.6% | viability, T/C [20] 15.8% | viability, T/C [25] 52.8% | viability, T/C [26] 22.5% | viability, T/C [27] 12% | viability, T/C [28] 12% | viability, T/C [29] 11.2% | viability, T/C [30] 10.7% | viability, T/C [31] 40.3% | viability, T/C [32] 13.2% | viability, T/C [33] 10.2% | viability, T/C [34] 8.15% | viability, T/C [35] 13.3% | viability, T/C [36] 9.1%

CCCS(=O)(=O)Nc1ccc(F)c(C(=O)c2c[nH]c3ncc(-c4ccc(Cl)cc4)cc23)c1F + CN(C)c1ccc(Nc2c3ccc(NC(=O)CCN4CCCC4)cc3nc3cc(NC(=O)CCN4CCCC4)ccc23)cc1
active: viability, T/C [25] 5.58% | viability, T/C [26] 0.71% | viability, T/C [27] 9.21% | viability, T/C [28] 1.39% | viability, T/C [29] 4.27% | viability, T/C [30] 1.07% | viability, T/C [31] 0.47% | viability, T/C [32] 0.37% | viability, T/C [33] 0.54% | viability, T/C [34] 2.11% | viability, T/C [35] 0.46% | viability, T/C [36] 0.51%
inactive: viability, T/C [1] 121% | viability, T/C [2] 107% | viability, T/C [3] 108% | viability, T/C [4] 102% | viability, T/C [5] 60.4% | viability, T/C [6] 15.4% | viability, T/C [7] 106% | viability, T/C [8] 99.9% | viability, T/C [9] 82.9% | viability, T/C [10] 87.1% | viability, T/C [11] 56.9% | viability, T/C [12] 13.6% | viability, T/C [13] 86.6% | viability, T/C [14] 72.3% | viability, T/C [15] 56.3% | viability, T/C [16] 49.2% | viability, T/C [17] 30.6% | viability, T/C [18] 14.1% | viability, T/C [19] 45.6% | viability, T/C [20] 25.1% | viability, T/C [21] 38.2% | viability, T/C [22] 30.3% | viability, T/C [23] 28.7% | viability, T/C [24] 6.94%
3.84 µM: IC50 (second compound 0.1 µM)
< 0.0316 µM: IC50 (second compound 1 µM) | IC50 (second compound 3.16 µM) | IC50 (second compound 10 µM)
4.16 µM: IC50 (second compound 0.0316 µM)
0.684 µM: IC50 (second compound 0.316 µM)

C=CC(=O)N1CCN(c2nc(=O)n(-c3c(C)ccnc3C(C)C)c3nc(-c4c(O)cccc4F)c(F)cc23)C(C)C1 (stereo not given) + Cc1[nH]c2ccc(F)cc2c1-c1nc2c3cccnc3c3ncccc3c2[nH]1
inactive: viability, T/C [1] 112% | viability, T/C [2] 99.2% | viability, T/C [3] 113% | viability, T/C [4] 89.5% | viability, T/C [5] 102% | viability, T/C [6] 60.8% | viability, T/C [7] 110% | viability, T/C [8] 97.4% | viability, T/C [9] 104% | viability, T/C [10] 116% | viability, T/C [11] 93.4% | viability, T/C [12] 71.8% | viability, T/C [13] 101% | viability, T/C [14] 113% | viability, T/C [15] 105% | viability, T/C [16] 99.4% | viability, T/C [17] 104% | viability, T/C [18] 85.3% | viability, T/C [19] 109% | viability, T/C [20] 102% | viability, T/C [21] 110% | viability, T/C [22] 104% | viability, T/C [23] 88.9% | viability, T/C [24] 73.2% | viability, T/C [25] 93.3% | viability, T/C [26] 91.4% | viability, T/C [27] 96% | viability, T/C [28] 93.1% | viability, T/C [29] 74.7% | viability, T/C [30] 51.5% | viability, T/C [31] 58.4% | viability, T/C [32] 69.9% | viability, T/C [33] 78.5% | viability, T/C [34] 74.3% | viability, T/C [35] 74.9% | viability, T/C [36] 32.7%
> 10 µM: IC50 (second compound 0.0316 µM) | IC50 (second compound 0.1 µM) | IC50 (second compound 0.316 µM) | IC50 (second compound 1 µM) | IC50 (second compound 3.16 µM)
5.95 µM: IC50 (second compound 10 µM)

COc1ccc([C@@H](O)c2cc(-c3ncnc4cc(N5CCOCC5)ccc34)c(F)cc2Cl)nn1 + Cc1[nH]c2ccc(F)cc2c1-c1nc2c3cccnc3c3ncccc3c2[nH]1
8.49 µM: IC50 (second compound 0.0316 µM)
3.91 µM: IC50 (second compound 3.16 µM)
7.3 µM: IC50 (second compound 0.1 µM)
> 10 µM: IC50 (second compound 0.316 µM)
inactive: viability, T/C [1] 103% | viability, T/C [2] 91.6% | viability, T/C [3] 105% | viability, T/C [4] 79.6% | viability, T/C [5] 72.2% | viability, T/C [6] 46.3% | viability, T/C [7] 102% | viability, T/C [8] 101% | viability, T/C [9] 86.8% | viability, T/C [10] 73.7% | viability, T/C [11] 69.9% | viability, T/C [12] 42.6% | viability, T/C [13] 99.5% | viability, T/C [14] 95.4% | viability, T/C [15] 96.6% | viability, T/C [16] 92.5% | viability, T/C [17] 86.2% | viability, T/C [18] 53% | viability, T/C [19] 90.6% | viability, T/C [20] 110% | viability, T/C [21] 88.6% | viability, T/C [22] 78.5% | viability, T/C [23] 64.3% | viability, T/C [24] 39.1% | viability, T/C [25] 72.4% | viability, T/C [26] 81.8% | viability, T/C [27] 76.4% | viability, T/C [28] 91.7% | viability, T/C [29] 55.6% | viability, T/C [30] 25.2% | viability, T/C [31] 68% | viability, T/C [32] 66.5% | viability, T/C [33] 79% | viability, T/C [34] 54.8% | viability, T/C [35] 47% | viability, T/C [36] 16%
5.89 µM: IC50 (second compound 1 µM)
2.25 µM: IC50 (second compound 10 µM)

CCCS(=O)(=O)Nc1ccc(F)c(C(=O)c2c[nH]c3ncc(-c4ccc(Cl)cc4)cc23)c1F + Cc1cnc(CNC(=O)c2c(=O)c3ccc(N4CCCN(C)CC4)nc3n3c2sc2ccccc23)cn1
3.92 µM: IC50 (second compound 0.1 µM)
< 0.0316 µM: IC50 (second compound 1 µM) | IC50 (second compound 3.16 µM) | IC50 (second compound 10 µM)
0.179 µM: IC50 (second compound 0.316 µM)
inactive: viability, T/C [1] 89.2% | viability, T/C [2] 100% | viability, T/C [3] 99.8% | viability, T/C [4] 91.3% | viability, T/C [5] 60.6% | viability, T/C [7] 64.3% | viability, T/C [8] 56.2% | viability, T/C [9] 67.1% | viability, T/C [10] 49.9% | viability, T/C [11] 59.4% | viability, T/C [13] 43% | viability, T/C [14] 68.4% | viability, T/C [15] 43.6% | viability, T/C [16] 38.1% | viability, T/C [17] 37.5% | viability, T/C [18] 16.5% | viability, T/C [19] 55.6% | viability, T/C [20] 23.6% | viability, T/C [21] 43.1% | viability, T/C [22] 18.8% | viability, T/C [23] 19.7% | viability, T/C [25] 10.6% | viability, T/C [26] 11.7% | viability, T/C [27] 10.6% | viability, T/C [28] 11.8% | viability, T/C [29] 21.4% | viability, T/C [30] 0.18% | viability, T/C [31] 10.2% | viability, T/C [32] 6.4% | viability, T/C [33] 24.3% | viability, T/C [34] 8.2% | viability, T/C [35] 16.7% | viability, T/C [36] 8.36%
active: viability, T/C [6] 9.94% | viability, T/C [12] 9.77% | viability, T/C [24] 5.79%
4.02 µM: IC50 (second compound 0.0316 µM)
